# Measurements: patent US10054581B1, “Inhibitors of notch signaling pathway and use thereof in treatment of cancers” (Ecole Polytechnique Federale de Lausanne (EPFL), priority 2011, dated 2018)
# Entries after “also recorded” stand apart in the source; their conditions may differ.
# Test system: Notch signalling via DL4:N1 ligand-receptor pair (Notch1)
# Assay: DL4:N1 coculture assay, Notch driven luciferase reporter
# Assay type: cell-based, mouse
# Conditions: DL4-N1 coculture assay; for Notch inhibitory activity of derivatives compared to parental compound I3: FIG. 10
# Text: Mouse DL4-IRES dsRED cDNA was cloned into a pENTR1 vector (Invitrogen®) and finally shuttled into a destination lentivirus vector using Gateway cloning strategy (Invitrogen). A Phosphoglycerate kinase (PGK) promoter drove the expression of DL4 protein. DL4-lentiviral particles were produced in 293T cells by cotransfection of DL4-lentivirus vector, Gag/pol expression plasmid and plasmid encoding for viral envelope proteins. To overexpress Notch1 protein, mouse full length Notch1 cDNA was a cloned in a pCDNA3.1-IRES-puromycin vector. Notch1 cDNA was cloned upstream of IRES-puromycin between HindIII and XbaI restriction sites. A CMV promoter controlled the expression of Notch1 protein.
# To measure the Notch signalling activation, CSL/RBP-jk consensus DNA binding sequences were cloned in a head to tail conformation in the pGL4 luciferase vector (Promega), thus named 12×CSL/RBP-jjk luciferase vector. In order to determine the Notch pathway activation in chemical compound screening assay, 12×CSL/RBP-jk consensus DNA binding sequences were cloned into pGL4.26.luciferase vector (Promega). As an internal control for transfection efficiency, SV40 Renilla vector was used (Promega).
# In order to generate DL4 and N1 stable cell lines, HeLa cell were bought from ATCC (catalog # CCL-2). To generate DL4 stable lines, cells were transduced with DL4-lentiviral particles. DL4 stable clones were selected using puromycin. High DL4 expressing clones were sorted using antibodies against DL4 with Fluorescence activated cell sorting (FACS). To generate N1 stable line, cell were transfected with a pCDNA3.1+(Invitrogen) plasmid containing mouse full length Notch1 under the control of CMV promoter. To select for Notch1 expressing clones, an IRES puromycin cassette was cloned downstream of Notch1 cDNA. HeLa cells expressing high levels of Notch1 were enriched by FACS using anti-Notch1 antibodies. DL4- and N1-HeLa cells were cultured in DMEM (GIBCO, Invitrogen), 10% FCS and 10 ug/ml of puromycin (Sigma).
# For chemical library screen, the coculture assay was performed as follows. N1-HeLa cells were cotransfected in 10 cm tissue culture dishes with 16 μg of pGL4.26. 12×CSL.luciferase vector/plate, 4 μg of Notch1 expression plasmid/plate, and 200 ng of SV40 Renilla vector/plate. DL4- and N1-HeLa cells were detached from the plate by using 0.5 mM EDTA (1×PBS). The both cell populations were counted and mixed in 1:1 ratio (5,000:5,000 cells/well in a 384 well plate) and dispensed into 384 well plates (white, clear bottom, Corning) using multidrop Combi plate dispenser. The assay plates were pre-dispensed (using automated Biomek 3000 liquid handler) with chemical compound libraries (Microsource NIMDS, Maybridge Hitfinder and Prestwick) to give a final concentration of 10 μM. The final assay volume was 22 μls. Twenty-four hours later, growth media was aspirated and cells were lysed with 1× Passive lysis buffer for 10 minutes at room temperature. Luciferase activity was measured using Luciferase Assay Reagent II and Renilla values were determined by using Stop and Glow reagent (Dual luciferase assay system, Cat #E1980, Promega). Luciferase and renilla readouts were taken using Tecan® F500 (Tecan) multiplate reader. All the liquid handling steps (aspiration of the medium, dispensing of Passive lysis buffer, Luciferase Assay Reagent II and Stop and Glow reagents) were performed using ELF406 liquid handler.
# In order to identify novel modulators of the Notch pathway, Applicants have established a coculture assay in which DL4 ligand expressing HeLa cells were cultured with N1 HeLa cells, thereby activating the Notch pathway. The use of a DL4 and N1 HeLa cell coculture system mimics physiological conditions of cell-cell communication between ligand and receptor expressing cells. The in vitro generation of a controlled receptor-ligand assay system allowed Applicants to modify and monitor the Notch signal intensity by γ-secretase inhibitors. […]
Structure (SMILES),ability to block Notch pathway activation in coculture assay (screening of derivatives),Notch inhibitory activity of derivatives compared to parental compound I3
"Nc1ccc(Oc2ccc(C3CCCCC3)cc2)nc1 [I3-A, 6-(4-cyclohexylphenoxy)pyridin-3-amine]",ability to block Notch pathway activation in coculture assay,block Notch signalling to comparable levels to parental compound I3; also recorded: exhibit anti-Notch activity comparable to 6-(4-Tert-Butylphenoxy)Pyridin-3-Amine (I3)
"CCC(C)(C)c1ccc(Oc2ccc(N)cn2)cc1 [I3-B, 6-(4-(tert-Pentyl)phenoxy)pyridin-3-amine]",ability to block Notch pathway activation in coculture assay,block Notch signalling to comparable levels to parental compound I3; also recorded: exhibit anti-Notch activity comparable to 6-(4-Tert-Butylphenoxy)Pyridin-3-Amine (I3)
"CC(C)(C)c1ccc(Oc2ccc(N)cc2)cc1 [I3-C, 4-(4-(tert-butyl)phenoxy)aniline]",ability to block Notch pathway activation in coculture assay,block Notch signalling to comparable levels to parental compound I3; also recorded: exhibit anti-Notch activity comparable to 6-(4-Tert-Butylphenoxy)Pyridin-3-Amine (I3)
"CCCCc1ccc(Oc2ccc(N)cn2)cc1 [I3-D, 6-(4-Butylphenoxy)pyridin-3-amine]",ability to block Notch pathway activation in coculture assay,
"CCC(C)(C)c1ccc(Oc2ccc(N)cc2)cc1 [I3-E, 4-(4-(tert-pentyl)phenoxy)aniline]",ability to block Notch pathway activation in coculture assay,block Notch signalling to comparable levels to parental compound I3; also recorded: exhibit anti-Notch activity comparable to 6-(4-Tert-Butylphenoxy)Pyridin-3-Amine (I3)
"Nc1ccc(Oc2ccc(C3CCCCC3)cc2)cc1 [I3-F, 4-(4-cyclohexylphenoxy)aniline]",ability to block Notch pathway activation in coculture assay,appear to have enhanced activity
"Nc1ccc(Oc2ccc(C34CC5CC(CC(C5)C3)C4)cc2)nc1 [I3-G, 6-(4-((3r,5r,7r)-adamantan-1-yl)phenoxy)pyridin-3-amine]",ability to block Notch pathway activation in coculture assay,block Notch signalling to comparable levels to parental compound I3; also recorded: exhibit anti-Notch activity comparable to 6-(4-Tert-Butylphenoxy)Pyridin-3-Amine (I3)
"CC(C)(C)c1cccc(Oc2ccc(N)cn2)c1 [I3-H, 6-(3-(tert-butyl)phenoxy)pyridin-3-amine]",ability to block Notch pathway activation in coculture assay,block Notch signalling to comparable levels to parental compound I3; also recorded: exhibit anti-Notch activity comparable to 6-(4-Tert-Butylphenoxy)Pyridin-3-Amine (I3)
"CC(C)(C)c1ccc(Oc2ccc(N)cc2F)cc1 [I3-I, 4-(4-(tert-butyl)phenoxy)-3-fluoroaniline]",ability to block Notch pathway activation in coculture assay,appear to have enhanced activity
"CC(C)c1ccc(Oc2ccc(N)cc2)cc1 [I3-J, 4-(4-isopropylphenoxy)aniline]",ability to block Notch pathway activation in coculture assay,
"CC(C)(C)CC(C)(C)c1ccc(Oc2ccc(N)cn2)cc1 [I3-K, 6-(4-(2,4,4-trimethylpentan-2-yl)phenoxy)pyridin-3-amine]",ability to block Notch pathway activation in coculture assay,
"Nc1ccc(Oc2ccc(C3CCCCC3)cc2)c(F)c1 [I3-L, 4-(4-cyclohexylphenoxy)-3-fluoroaniline]",ability to block Notch pathway activation in coculture assay,
"CCC(C)(C)c1ccc(Oc2ccc(N)cc2F)cc1 [I3-M, 3-fluoro-4-(4-(tert-pentyl)phenoxy)aniline]",ability to block Notch pathway activation in coculture assay,block Notch signalling to comparable levels to parental compound I3; also recorded: exhibit anti-Notch activity comparable to 6-(4-Tert-Butylphenoxy)Pyridin-3-Amine (I3)
"CCCC(C)(C)c1ccc(Oc2ccc(N)cn2)cc1 [I3-N, 6-(4-(2-methylpentan-2-yl)phenoxy)pyridin-3-amine]",ability to block Notch pathway activation in coculture assay,block Notch signalling to comparable levels to parental compound I3; also recorded: exhibit anti-Notch activity comparable to 6-(4-Tert-Butylphenoxy)Pyridin-3-Amine (I3)
"Nc1ccc(Oc2ccc(C34CC5CC(CC(C5)C3)C4)cc2)cc1 [I3-O, 4-(4-((3r,5r,7r)-adamantan-1-yl)phenoxy)aniline]",ability to block Notch pathway activation in coculture assay,
"Nc1ccc(Oc2ccc(C34CC5CC(CC(C5)C3)C4)cc2)c(F)c1 [I3-P, 4-(4-((3r,5r,7r)-adamantan-1-yl)phenoxy)-3-fluoroaniline]",ability to block Notch pathway activation in coculture assay,
